Results on one compound are retold here after patent US5470858A, “Derivatives of (hetero)aromatic ethers and thioethers having antihyperlipidemic activity, process for their preparation and pharmaceutical compositions containing them” (Pierrel SpA, priority 1991, dated 1995).

Each structure is given as a SMILES string. Where two headings read alike, the source gives them in different places.

Format in all cases: in vivo
In data set [1] the test system is hyperlipaemic SD male rats. Nature of the data set: Hypolipemizing activity, 5 days experimental model, modified Nath diet. The conditions noted are these: rat, oral; for change in vivo at 100 mg/kg/day / change in vivo at 300 mg/kg/day: 120 h; for Hepatic index (percent variation vs hyperlipaemic controls): index = (Liver weight/body weight) × 100. How it is done:
(§1) The hypolipemizing activity of the compounds of the present invention has been evaluated in the rat using SD male animals (Charles River) of an initial weight of 150 g, housed in controlled environment at a temperature of 21°±1° C., relative humidity 60% and a 12 hours light/dark cycle.
Experimental models have been used in which the animals are rendered hiperlipaemic by "ad libitum" food administration with a modified Nath diet (Atherosclerosis 30, 1978, pag. 45-46) having the following composition: […]
hydrogenated coconut oil
In the first model the animals have been fed with this diet for 5 consecutive days, during which they received the pharmacological treatment once a day by oral route and were sacrificed 2 hours after the last administration.
At the time of the sacrifice the blood was removed, for the lipid determination, as well as the liver the weight of which was the index of a possible hepatomegaly.
By this experimental model the concentration of the serum lipids attained very high values which, in the control group, was four times the normal values for the total cholesterol and the triglycerides.
(§2) The determination of the triglycerides, of the total cholesterol and of the cholesterol associated to the HDL has been effected by means of a commercial enzymatic kit. The concentration of the cholesterol associated to VLDL+LDL has been determined by difference between total cholesterol and HDL.
The results obtained in the experimental model of the 5 days duration for some compounds representative of the invention are reported in the following table 1. The data are expressed as percent variation with respect to the hyperlipaemic controls to which carboxymethylcellulose as 0.5% in water at the dose of 10 ml/kg/day by oral route was administered. The same vehicle was used for the suspension of the tested compounds at the doses of 100 and 300 mg/kg/day by oral route.

Data set [2] concerns hyperlipaemic SD male rats. The data set can be described thus: Hypolipemizing activity, 15 days experimental model, modified diet. Particulars: rat, oral; for Cholesterol VLDL + LDL (percent variation vs hyperlipaemic controls): by difference between total and HDL; for Hepatic index (percent variation vs hyperlipaemic controls): index = (Liver weight/body weight) × 100. The method, then:
as §1
Experimental models have been used in which the animals are rendered hiperlipaemic by "ad libitum" food administration with a modified Nath diet (Atherosclerosis 30, 1978, pag. 45-46) having the following composition:
In the second model a diet was used which was modified with respect to the former one by the following parameters: […]
The animals were fasted with this diet for 15 days consecutively, during which they received the pharmacological treatment once a day by oral route and were sacrificed 24 hours after the last administration. At the sacrifice time the blood was removed for the lipid determination and the liver was removed as well to be weighed and used for the evaluation of the catalase enzyme as the index of the peroxysomes proliferation and thus of hepatotoxicity.
This experimental model has been used only for the molecules which in the first model were found more promising, and has permitted to get values of the serum lipids from 2 to 3 times higher than the normal values both for the total cholesterol and for the triglycerides.
This experimental model was used to:
a) evaluate the effectiveness on a less marked hyperlipoproteinaemy, and
b) assess mainly at the hepatic level the tolerability of the compounds during a more extended treatment.
as §2
On the basis of the indications provided by this screening the most interesting compounds have been evaluated by the 15 days experimental model which permits both the evaluation of the effectiveness in the case of a hyperlipaemia less marked and more constant, and the tolerability control of the compounds during a longer term treatment.
In this case too the results (reported in the following table 2) are expressed as the percent variation with respect to the hyperlipaemic controls to which carboxymethylcellulose as 0.5% in water was administered by oral route at the dose of 10 ml/kg/day. The same vehicle was used for the suspension of the compounds being tested, administered at the doses; of 50 and 100 mg/kg/day by oral route.

The subject of data set [3] is catalase enzyme. Nature of the data set: Hepatic tolerability, 15 days at high dose: catalase enzyme activity in liver (index of peroxysomes proliferation). The conditions noted are these: rat liver, oral, 15 days, 300 mg/kg/day; absolute values; solvent 539,8. The method, then: (§3) The hypolipemizing activity of the compounds of the present invention has been evaluated in the rat using SD male animals (Charles River) of an initial weight of 150 g, housed in controlled environment at a temperature of 21°±1° C., relative humidity 60% and a 12 hours light/dark cycle. The animals were fasted with this diet for 15 days consecutively, during which they received the pharmacological treatment once a day by oral route and were sacrificed 24 hours after the last administration. At the sacrifice time the blood was removed for the lipid determination and the liver was removed as well to be weighed and used for the evaluation of the catalase enzyme as the index of the peroxysomes proliferation and thus of hepatotoxicity. In order to evaluate the hepatic tolerability of the compounds of interest they have been administered for 15 days at a high dose (300 mg/kg/day) according to the same conditions of the previous experiment.24 hours after the last treatment the animals have been sacrificed, and the liver has been removed and stored at -20° C. up to the time of dosing the activity of the catalase enzyme (Methods of enzymatic analysis, vol.2, pag. 673, 1974 edit. H. U. Bergmeyer, Verlag Chemie International).

The test system of data set [4] is liver. The data set can be described thus: Hepatic tolerability, 15 days at high dose: hepatic index. The conditions noted are these: rat, oral, 15 days, 300 mg/kg/day; absolute values; solvent 5,4. The method, then:
as §3

For `CC(C)COC(=O)c1ccc(OCC(CSc2nc3c(N)ncnc3n2[C@@H]2O[C@H](CO)[C@@H](O)[C@H]2O)=NNC(N)=O)cc1` [Example 33], the change in vivo at 100 mg/kg/day in data set [1] (100 mg/kg/day, by difference between total and HDL, read-out: Cholesterol VLDL + LDL (percent variation vs hyperlipaemic controls)) is -37.4%; in data set [1] (100 mg/kg/day, read-out: Cholesterol HDL (percent variation vs hyperlipaemic controls)) it was 22.2%; in data set [1] (100 mg/kg/day, read-out: Total Cholesterol (percent variation vs hyperlipaemic controls)) it was -34.8%; in data set [1] (100 mg/kg/day, read-out: Triglycerides (percent variation vs hyperlipaemic controls)), -27.8%. Besides, the change in vivo at 300 mg/kg/day in data set [1] (300 mg/kg/day, by difference between total and HDL, read-out: Cholesterol VLDL + LDL (percent variation vs hyperlipaemic controls)) is -46.9%; in data set [1] (300 mg/kg/day, read-out: Cholesterol HDL (percent variation vs hyperlipaemic controls)), 16.6%; in data set [1] (300 mg/kg/day, read-out: Total Cholesterol (percent variation vs hyperlipaemic controls)), -44.1%; in data set [1] (300 mg/kg/day, read-out: Triglycerides (percent variation vs hyperlipaemic controls)), -43%. For the same compound, the “Hepatic index (percent variation vs hyperlipaemic controls)” value in data set [1] (100 mg/kg/day) is -1,6%; in data set [1] (300 mg/kg/day) it was -2,5%; in data set [2] (50 mg/kg/day), “+2,2%”; in data set [2] (100 mg/kg/day), “+3,9%”. The “Cholesterol HDL (percent variation vs hyperlipaemic controls)” value in data set [2] (50 mg/kg/day) is listed as “+15,6%”; in data set [2] (100 mg/kg/day) it was “+19,4%”. For the same compound, the “Total Cholesterol (percent variation vs hyperlipaemic controls)” value in data set [2] (50 mg/kg/day) is on record as -29,7%; in data set [2] (100 mg/kg/day), -33,8%. Further, the “Triglycerides (percent variation vs hyperlipaemic controls)” value was -20,5% in data set [2] (50 mg/kg/day) and -30,6% in data set [2] (100 mg/kg/day). In addition, the “Cholesterol VLDL + LDL (percent variation vs hyperlipaemic controls)” value in data set [2] (50 mg/kg/day) is reported as -34,7%; in data set [2] (100 mg/kg/day) it was -39,7%. The Catalase enzyme activity in data set [3] is 378,5 umoli/min/mg proteins. Moreover, the “Hepatic index (Liver weight/body weight) × 100” value in data set [4] is recorded as 5,3.
